In patent US9999650B2, “Peptide and peptidomimetic inhibitors” (Ra Pharmaceuticals, Inc., priority 2012, dated 2018):
Numbered stars: 1 amine (or outer) side, 2 acyl side, 3 side chain; on linkers, the order of the positions; unused ones are H or OH. Bridge positions count the residues as written; N and C are the ends. Square brackets hold non-standard residues; d marks the D form. Peptide text beside a SMILES is read from it. * marks the point of attachment. mXylylene = c1cc(C[*:1])cc(C[*:2])c1; Phg = N[C@H](C(=O)O)c1ccccc1; Tle = CC(C)(C)[C@H](N)C(=O)O; NMeS = CN[C@@H](CO)C(=O)O; Heptanoyl = CCCCCCC(=O)*; Nva = CCC[C@H](N)C(=O)O; Mpa = O=C(O)CCS

Assays:
Assay type in all cases: biochemical
[1] = target: T1, Factor Xa (Homo sapiens, UniProt P00742); assay: Inhibitor specificity IC50 assay, Factor Xa (Boc-Gln-Gly-Arg-AMC); details: substrate Boc-Gln-Gly-Arg-AMC
T1 construct: Factor Xa (Enzyme Research Laboratories, South Bend, Ind.); purchased Enzyme Research Laboratories
T1 sequence (P00742 41-179 limits assumed): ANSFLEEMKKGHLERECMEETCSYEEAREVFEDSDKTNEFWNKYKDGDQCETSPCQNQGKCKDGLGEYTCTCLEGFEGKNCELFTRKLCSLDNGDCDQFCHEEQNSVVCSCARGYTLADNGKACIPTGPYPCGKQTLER
T1 sequence (P00742 235-488 limits assumed): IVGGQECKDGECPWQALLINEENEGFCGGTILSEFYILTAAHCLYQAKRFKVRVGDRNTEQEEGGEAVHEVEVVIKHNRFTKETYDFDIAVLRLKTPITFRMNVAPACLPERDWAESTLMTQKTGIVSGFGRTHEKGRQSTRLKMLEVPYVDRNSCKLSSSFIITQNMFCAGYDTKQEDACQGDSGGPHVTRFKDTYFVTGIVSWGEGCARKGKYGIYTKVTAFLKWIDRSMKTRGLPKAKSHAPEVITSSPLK
Procedure: (§1) Activated human plasma kallikrein (Enzyme Research Laboratories, HPKa 1303) was reacted with H-Pro-Phe-Arg-7-amido-4-methylcoumarin (H-Pro-Pre-Arg-AMC) (a fluorogenic substrate for plasma as well as pancreatic and urinary kallikreins; Bachem I-1295) and candidate inhibitory peptides to determine the IC50 of the inhibitor.
(§2) Ten 8-fold serial dilutions of peptides (10 mM DMSO stocks) were performed in DMSO and then added to TCNB (50 mM Tris-HCl pH 7.2, 150 mM NaCl, 10 mM CaCl2, 0.05% Brij-35) and sonicated. 50 μL of the peptide dilutions were added to microtitre plates (96 well, black non-binding surface, Corning, 3650) and incubated for 5 minutes at room temperature with 4 nM activated human kallikrein (final concentration after addition of fluorogenic substrate: 1 nM). The samples were then incubated for 1 hour at room temperature with 2 mM H-Pro-Phe-Arg-AMC (final concentration 500 μM). Relative Fluorescence Units (RFU) were measured at excitation/emission 360 nm/460 nm by a SpectraMax M3.
(§3) To determine the specificity of peptide inhibitors, an IC50 assay, as described in Example 4, was performed on a variety of serine proteases related to human plasma kallikrein. The enzymes tested include mouse plasma kallikrein (R&D Systems, Minneapolis, Minn.), and the human enzymes Factor VIIa (Enzyme Research Laboratories, South Bend, Ind.), Factor Xa (Enzyme Research Laboratories, South Bend, Ind.), Factor XIa (Enzyme Research Laboratories, South Bend, Ind.), Factor XIIa (Enzyme Research Laboratories, South Bend, Ind.), tissue kallikrein KLK13 (R&D Systems, Minneapolis, Minn.), thrombin (Enzyme Research Laboratories, South Bend, Ind.) and plasmin (Enzyme Research Laboratories, South Bend, Ind.).
(§4) Each enzyme was tested with the following specific fluorgenic substrates (available from Bachem; Torrance, Calif.): mouse plasma kallikrein (Pro-Phe-Arg-AMC), Factor VIIa (Boc-Val-Pro-Arg-AMC), Factor Xa (Boc-Gln-Gly-Arg-AMC), Factor XIa (Boc-Gln-Gly-Arg-AMC), Factor XIIa (Boc-Gln-Gly-Arg-AMC), KLK13 (Boc-Val-Pro-Arg-AMC), thrombin (Boc-Val-Pro-Arg-AMC) and plasmin (Boc-Val-Leu-Lys-AMC). Peptide inhibitors R2006, R2010, R2012, R2019, R2023, R2030, R2036, R2041, R2047, R2104 and R2051 were assayed.

[2] = target: T2, tissue kallikrein KLK13 (Homo sapiens, UniProt Q9UKR3); assay: Inhibitor specificity IC50 assay, KLK13 (Boc-Val-Pro-Arg-AMC); details: substrate Boc-Val-Pro-Arg-AMC
T2 construct: purchased R&D Systems
T2 sequence (Q9UKR3 17-277): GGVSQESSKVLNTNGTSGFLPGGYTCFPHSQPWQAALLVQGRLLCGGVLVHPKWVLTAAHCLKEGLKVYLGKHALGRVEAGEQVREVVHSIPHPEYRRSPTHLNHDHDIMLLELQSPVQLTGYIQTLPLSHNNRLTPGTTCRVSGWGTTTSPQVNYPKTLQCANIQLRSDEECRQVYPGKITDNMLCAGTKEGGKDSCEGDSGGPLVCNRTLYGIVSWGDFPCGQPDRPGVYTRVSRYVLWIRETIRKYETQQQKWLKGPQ
Procedure: as §1, §2, §3, §4

[3] = target: T3, human plasma kallikrein (Homo sapiens, UniProt P03952); assay: Enzyme inhibition assay (fluorogenic substrate H-Pro-Phe-Arg-AMC); details: Kallikrein inhibitory activity; 1 nM activated human kallikrein, 500 μM H-Pro-Phe-Arg-AMC, 1 hour room temperature; read-out: Avg. IC50
T3 construct: purchased Enzyme Research Laboratories HPKa 1303
T3 sequence (P03952 20-390 limits assumed): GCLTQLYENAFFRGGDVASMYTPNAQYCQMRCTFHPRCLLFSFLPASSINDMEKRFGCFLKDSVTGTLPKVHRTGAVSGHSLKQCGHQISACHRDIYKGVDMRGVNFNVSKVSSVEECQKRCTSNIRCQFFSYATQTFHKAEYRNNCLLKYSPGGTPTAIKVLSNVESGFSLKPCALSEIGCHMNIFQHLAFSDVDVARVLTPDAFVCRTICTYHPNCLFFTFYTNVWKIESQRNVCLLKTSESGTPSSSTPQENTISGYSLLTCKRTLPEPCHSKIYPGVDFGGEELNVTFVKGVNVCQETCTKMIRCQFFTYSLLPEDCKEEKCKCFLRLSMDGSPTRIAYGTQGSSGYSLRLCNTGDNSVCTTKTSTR
T3 sequence (P03952 391-638 limits assumed): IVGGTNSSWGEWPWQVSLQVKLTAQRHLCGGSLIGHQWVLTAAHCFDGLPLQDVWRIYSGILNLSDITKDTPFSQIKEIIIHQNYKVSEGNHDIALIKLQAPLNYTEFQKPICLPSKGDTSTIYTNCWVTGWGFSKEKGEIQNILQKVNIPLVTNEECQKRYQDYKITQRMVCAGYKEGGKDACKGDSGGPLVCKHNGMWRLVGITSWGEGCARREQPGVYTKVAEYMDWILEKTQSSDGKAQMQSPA
Outline: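 IC50 was determined from AMC fluorescence (ex 360/em 460 nm) after 1 h of reaction at room temperature with 500 μM final substrate. Before this, peptides in ten 8-fold serial dilutions were incubated 5 min with 1 nM final activated kallikrein. The buffer was Tris-HCl pH 7.2 containing NaCl, CaCl2 and Brij-35.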

[4] = target: T4, Factor VIIa (Homo sapiens, UniProt P08709); assay: Inhibitor specificity IC50 assay, Factor VIIa (Boc-Val-Pro-Arg-AMC); details: substrate Boc-Val-Pro-Arg-AMC
T4 construct: Factor VIIa (Enzyme Research Laboratories, South Bend, Ind.); purchased Enzyme Research Laboratories
T4 sequence (P08709 61-212 limits assumed): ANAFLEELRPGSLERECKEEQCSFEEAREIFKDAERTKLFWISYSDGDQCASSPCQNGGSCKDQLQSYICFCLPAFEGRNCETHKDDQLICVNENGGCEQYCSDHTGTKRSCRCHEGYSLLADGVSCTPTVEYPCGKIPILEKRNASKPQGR
T4 sequence (P08709 213-466 limits assumed): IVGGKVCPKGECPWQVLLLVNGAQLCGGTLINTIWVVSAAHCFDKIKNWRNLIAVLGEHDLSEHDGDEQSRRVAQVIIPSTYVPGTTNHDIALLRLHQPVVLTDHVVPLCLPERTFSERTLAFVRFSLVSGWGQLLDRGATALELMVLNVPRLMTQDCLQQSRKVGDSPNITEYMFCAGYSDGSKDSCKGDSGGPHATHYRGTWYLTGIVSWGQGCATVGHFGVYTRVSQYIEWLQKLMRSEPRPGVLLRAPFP
Procedure: as §2, §3, §4

[5] = target: T5, Factor XIa (Homo sapiens, UniProt P03951); assay: Inhibitor specificity IC50 assay, Factor XIa (Boc-Gln-Gly-Arg-AMC); details: substrate Boc-Gln-Gly-Arg-AMC
T5 construct: Factor XIa (Enzyme Research Laboratories, South Bend, Ind.); purchased Enzyme Research Laboratories
T5 sequence (P03951 19-387 limits assumed): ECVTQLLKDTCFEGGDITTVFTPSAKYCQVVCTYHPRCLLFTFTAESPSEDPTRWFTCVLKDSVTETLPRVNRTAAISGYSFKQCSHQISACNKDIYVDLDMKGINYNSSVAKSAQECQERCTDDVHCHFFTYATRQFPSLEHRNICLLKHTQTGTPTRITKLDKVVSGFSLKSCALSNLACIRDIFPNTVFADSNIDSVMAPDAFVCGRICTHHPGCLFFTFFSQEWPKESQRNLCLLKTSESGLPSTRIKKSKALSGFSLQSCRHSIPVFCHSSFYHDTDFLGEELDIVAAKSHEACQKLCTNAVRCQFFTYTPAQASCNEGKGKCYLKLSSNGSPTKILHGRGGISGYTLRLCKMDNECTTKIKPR
T5 sequence (P03951 388-625 limits assumed): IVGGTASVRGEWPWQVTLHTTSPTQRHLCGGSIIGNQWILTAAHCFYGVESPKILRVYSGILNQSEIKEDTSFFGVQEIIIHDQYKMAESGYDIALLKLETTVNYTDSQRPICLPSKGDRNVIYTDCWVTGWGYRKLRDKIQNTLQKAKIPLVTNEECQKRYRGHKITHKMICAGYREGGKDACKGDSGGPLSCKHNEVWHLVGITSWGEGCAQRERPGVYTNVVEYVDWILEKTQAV
Procedure: as §1, §2, §3, §4

[6] = target: T6, thrombin (Homo sapiens, UniProt P00734); assay: Inhibitor specificity IC50 assay, thrombin (Boc-Val-Pro-Arg-AMC); details: substrate Boc-Val-Pro-Arg-AMC
T6 construct: thrombin (Enzyme Research Laboratories, South Bend, Ind.); purchased Enzyme Research Laboratories
Procedure: as §1, §2, §3, §4

[7] = target: T7, Factor XIIa (Homo sapiens, UniProt P00748); assay: Inhibitor specificity IC50 assay, Factor XIIa (Boc-Gln-Gly-Arg-AMC); details: substrate Boc-Gln-Gly-Arg-AMC
T7 construct: Factor XIIa (Enzyme Research Laboratories, South Bend, Ind.); purchased Enzyme Research Laboratories
T7 sequence (P00748 373-615 limits assumed): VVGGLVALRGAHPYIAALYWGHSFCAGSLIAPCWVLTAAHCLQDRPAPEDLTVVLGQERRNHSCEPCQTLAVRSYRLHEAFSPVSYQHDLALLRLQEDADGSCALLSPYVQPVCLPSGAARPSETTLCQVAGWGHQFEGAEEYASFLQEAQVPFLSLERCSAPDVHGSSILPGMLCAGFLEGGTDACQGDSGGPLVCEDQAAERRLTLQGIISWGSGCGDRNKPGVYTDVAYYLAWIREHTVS
Procedure: as §1, §2, §3, §4

[8] = target: T8, plasmin (Homo sapiens, UniProt P00747); assay: Inhibitor specificity IC50 assay, plasmin (Boc-Val-Leu-Lys-AMC); details: substrate Boc-Val-Leu-Lys-AMC
T8 construct: plasmin (Enzyme Research Laboratories, South Bend, Ind.); purchased Enzyme Research Laboratories
T8 sequence (P00747 97-580 limits assumed): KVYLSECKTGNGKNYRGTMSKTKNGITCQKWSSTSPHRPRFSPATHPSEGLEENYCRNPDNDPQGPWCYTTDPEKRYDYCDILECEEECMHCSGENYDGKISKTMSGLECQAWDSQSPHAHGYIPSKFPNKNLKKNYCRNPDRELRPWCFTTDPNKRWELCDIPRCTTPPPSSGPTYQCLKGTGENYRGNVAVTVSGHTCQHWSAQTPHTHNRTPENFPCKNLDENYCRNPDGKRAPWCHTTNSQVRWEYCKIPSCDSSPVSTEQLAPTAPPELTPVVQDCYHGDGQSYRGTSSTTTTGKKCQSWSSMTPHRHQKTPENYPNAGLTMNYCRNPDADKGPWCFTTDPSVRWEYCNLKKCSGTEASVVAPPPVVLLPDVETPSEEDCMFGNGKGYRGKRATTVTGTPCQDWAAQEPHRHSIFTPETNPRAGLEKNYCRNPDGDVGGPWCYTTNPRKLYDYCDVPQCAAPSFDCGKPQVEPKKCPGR
T8 sequence (P00747 581-810 limits assumed): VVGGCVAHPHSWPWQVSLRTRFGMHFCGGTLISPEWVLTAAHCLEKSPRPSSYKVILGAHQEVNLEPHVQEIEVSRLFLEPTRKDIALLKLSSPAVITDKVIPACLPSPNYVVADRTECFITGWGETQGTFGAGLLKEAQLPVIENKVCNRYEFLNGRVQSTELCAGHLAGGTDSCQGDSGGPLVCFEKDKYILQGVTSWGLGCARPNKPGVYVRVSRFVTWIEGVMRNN
Procedure: as §1, §2, §3, §4

SMILES	IC50 [1] [µM]	IC50 [2] [µM]	IC50 [3] [nM]	IC50 [4] [µM]	IC50 [5] [µM]	IC50 [6] [µM]	IC50 [7] [µM]	IC50 [8] [µM]
CC[C@H](C)[C@@H]1NC(=O)[C@H](CO)NC(=O)[C@H](CCC(=O)O)NC(=O)[C@@H](NC(=O)[C@@H](N)CCSC)CSCc2cccc(c2)CSC[C@@H](C(=O)N[C@@H](CCCNC(=N)N)C(=O)N[C@H](C(N)=O)C(C)(C)C)NC1=O [Compound R2010, [mXylyl(2,6)]MCESICR-Tbg-NH2] (H-MCESICR[Tle]-NH2; linker 2-6 via mXylylene; N-terminus assumed)	> 100	> 100	9.9	> 100	> 15	> 100	> 100	> 100
CC[C@H](C)[C@@H]1NC(=O)[C@H](CO)N(C)C(=O)[C@H](CCC(=O)O)NC(=O)[C@@H](NC(=O)[C@@H](N)CCSC)CSCc2cccc(c2)CSC[C@@H](C(=O)N[C@@H](CCCNC(=N)N)C(=O)N[C@H](C(N)=O)C(C)C)NC1=O [Compound R2019, [mXylyl(2,6)]MCE-nMeS-ICRV-NH2] (H-MCE[NMeS]ICRV-NH2; linker 2-6 via mXylylene; N-terminus assumed)	> 10	> 16.4	52.3	> 100	> 9.1	> 100	> 12.5	> 21
CC[C@H](C)[C@@H]1NC(=O)[C@H](CO)NC(=O)[C@H](CCC(=O)O)NC(=O)[C@@H](NC(C)=O)CSCc2cccc(c2)CSC[C@@H](C(=O)N[C@@H](CCCNC(=N)N)C(=O)N[C@H](C(N)=O)C(C)C)NC1=O [Compound R2023, [mXylyl(1,5)]Ac-CESICRV-NH2] (Ac-CESICRV-NH2; linker 1-5 via mXylylene)	> 7	> 100	19	> 100	> 12.1	> 100	> 100	> 100
CCC[C@H](N)C(=O)N[C@H]1CSCc2cccc(c2)CSC[C@@H](C(=O)N[C@@H](CCCNC(=N)N)C(=O)N[C@H](C(N)=O)C(C)(C)C)NC(=O)[C@H](c2ccccc2)NC(=O)[C@@H]2CCCN2C(=O)[C@H](CCC(=O)O)NC1=O [Compound R2030, [mXylyl(2,6)]Nvl-CEP-Phg-CR-Tbg-NH2] (H-[Nva]CEP[Phg]CR[Tle]-NH2; linker 2-6 via mXylylene)	> 100	> 100	25	> 100	> 10.4	> 100	> 100	> 100
CC(=O)N[C@H]1CSCc2cccc(c2)CSC[C@@H](C(=O)N[C@@H](CCCNC(=N)N)C(=O)N[C@H](C(N)=O)C(C)(C)C)NC(=O)[C@H](c2ccccc2)NC(=O)[C@H](CO)NC(=O)[C@H](C)NC1=O [Compound R2036, [mXylyl(1,5)]Ac-CAS-Phg-CR-Tbg-NH2] (Ac-CAS[Phg]CR[Tle]-NH2; linker 1-5 via mXylylene)	> 7	> 100	6.4	> 100	> 4.8	> 100	> 100	> 19.5
CCCCCCC(=O)N[C@H]1CSCc2cccc(c2)CSC[C@@H](C(=O)N[C@@H](CCCNC(=N)N)C(=O)N[C@H](C(N)=O)C(C)C)NC(=O)[C@H]([C@@H](C)CC)NC(=O)[C@H](CO)NC(=O)[C@H](CCC(=O)O)NC1=O [Compound R2041, [mXylyl(1,5)]Heptanoyl-CESICRV-NH2] (Heptanoyl-CESICRV-NH2; linker 1-5 via mXylylene)	> 7	> 100	24.2	> 17.9	> 5.4	> 100	> 100	> 100
CC[C@H](C)[C@@H]1NC(=O)[C@H](CO)NC(=O)[C@H](CCC(=O)O)NC(=O)CCSCc2cccc(c2)CSC[C@@H](C(=O)N[C@@H](CCCNC(=N)N)C(=O)N[C@H](C(N)=O)C(C)C)NC1=O [Compound R2051, [mXylyl(1,5)](des-NH2)C-ESICRV-NH2] ([Mpa]ESICRV-NH2; linker 1-5 via mXylylene)	> 100	> 100	12.9	> 100	> 8.3	> 100	> 100	> 100
